Reference: ChEMBL document CHEMBL4387721, “Proteolysis targeting chimeras (PROTACs) in 'beyond rule-of-five' chemical space: Recent progress and future challenges” (Bioorg Med Chem Lett, 2019)

Legend:
Assay type in all cases: cell-based
[1] = biological target: T1, von Hippel-Lindau disease tumor suppressor/Tyrosine-protein kinase ABL1 (Homo sapiens, UniProt P00519+P40337); assay: Protac activity at VHL/c-ABL in human K562 cells assessed as induction of c-ABL protein degradation incubated for 24 hrs by immunoblot method
Target sequence in this assay (P00519 whole entry): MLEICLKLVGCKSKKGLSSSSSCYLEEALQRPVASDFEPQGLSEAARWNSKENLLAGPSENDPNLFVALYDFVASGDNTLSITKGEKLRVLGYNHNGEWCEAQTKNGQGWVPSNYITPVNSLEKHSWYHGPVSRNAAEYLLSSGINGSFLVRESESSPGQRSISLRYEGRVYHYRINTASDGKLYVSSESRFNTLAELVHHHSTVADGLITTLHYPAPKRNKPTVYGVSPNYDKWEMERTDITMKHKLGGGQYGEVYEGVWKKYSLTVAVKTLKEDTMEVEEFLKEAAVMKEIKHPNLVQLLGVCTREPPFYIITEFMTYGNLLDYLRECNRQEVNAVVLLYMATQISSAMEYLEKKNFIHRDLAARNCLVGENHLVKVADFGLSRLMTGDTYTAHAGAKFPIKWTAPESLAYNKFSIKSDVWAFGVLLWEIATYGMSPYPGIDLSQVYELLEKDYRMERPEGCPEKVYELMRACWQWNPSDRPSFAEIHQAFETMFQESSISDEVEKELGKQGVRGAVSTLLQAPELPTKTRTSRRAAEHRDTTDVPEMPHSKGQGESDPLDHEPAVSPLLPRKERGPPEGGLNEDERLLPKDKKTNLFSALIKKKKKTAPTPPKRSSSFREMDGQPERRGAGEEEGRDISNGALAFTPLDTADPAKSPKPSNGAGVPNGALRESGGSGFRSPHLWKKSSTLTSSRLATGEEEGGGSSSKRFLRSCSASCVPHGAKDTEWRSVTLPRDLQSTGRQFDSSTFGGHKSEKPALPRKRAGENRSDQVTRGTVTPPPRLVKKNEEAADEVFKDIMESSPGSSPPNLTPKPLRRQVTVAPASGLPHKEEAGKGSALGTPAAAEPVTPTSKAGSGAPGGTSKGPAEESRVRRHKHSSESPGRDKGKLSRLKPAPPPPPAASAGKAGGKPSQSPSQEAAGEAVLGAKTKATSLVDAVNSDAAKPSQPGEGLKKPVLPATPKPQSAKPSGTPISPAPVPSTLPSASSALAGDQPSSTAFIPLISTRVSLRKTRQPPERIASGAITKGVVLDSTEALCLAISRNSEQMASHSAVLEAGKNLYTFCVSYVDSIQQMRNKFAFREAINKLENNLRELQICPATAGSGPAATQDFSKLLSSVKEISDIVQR
Target sequence in this assay (P40337 whole entry): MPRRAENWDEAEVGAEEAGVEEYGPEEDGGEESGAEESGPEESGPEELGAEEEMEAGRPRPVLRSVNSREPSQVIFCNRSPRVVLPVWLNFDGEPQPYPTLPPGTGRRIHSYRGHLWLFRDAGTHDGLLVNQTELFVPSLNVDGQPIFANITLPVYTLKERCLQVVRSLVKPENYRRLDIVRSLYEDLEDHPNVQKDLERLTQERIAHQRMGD

[2] = biological target: T1, von Hippel-Lindau disease tumor suppressor/Tyrosine-protein kinase ABL1; assay: Protac activity at VHL/c-ABL in human K562 cells assessed as induction of c-ABL protein degradation at 1 uM incubated for 24 hrs by immunoblot method relative to control
Target sequence in this assay (P00519 whole entry, looked up): as the sequence (P00519 whole entry) above
Target sequence in this assay (P40337 whole entry, looked up): as the sequence (P40337 whole entry) above

[3] = biological target: T2, Protein cereblon/Peptidyl-prolyl cis-trans isomerase FKBP1A (Homo sapiens, UniProt P62942+Q96SW2); assay: Protac activity at CRBN/FKBP12 in human Jurkat cells assessed as induction of FKBP12 protein degradation incubated for 12 hrs by immunoblot method
Target sequence in this assay (P62942 whole entry): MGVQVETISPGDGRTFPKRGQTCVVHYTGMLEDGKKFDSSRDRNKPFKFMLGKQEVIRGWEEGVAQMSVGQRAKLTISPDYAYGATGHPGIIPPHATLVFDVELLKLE
Target sequence in this assay (Q96SW2 whole entry): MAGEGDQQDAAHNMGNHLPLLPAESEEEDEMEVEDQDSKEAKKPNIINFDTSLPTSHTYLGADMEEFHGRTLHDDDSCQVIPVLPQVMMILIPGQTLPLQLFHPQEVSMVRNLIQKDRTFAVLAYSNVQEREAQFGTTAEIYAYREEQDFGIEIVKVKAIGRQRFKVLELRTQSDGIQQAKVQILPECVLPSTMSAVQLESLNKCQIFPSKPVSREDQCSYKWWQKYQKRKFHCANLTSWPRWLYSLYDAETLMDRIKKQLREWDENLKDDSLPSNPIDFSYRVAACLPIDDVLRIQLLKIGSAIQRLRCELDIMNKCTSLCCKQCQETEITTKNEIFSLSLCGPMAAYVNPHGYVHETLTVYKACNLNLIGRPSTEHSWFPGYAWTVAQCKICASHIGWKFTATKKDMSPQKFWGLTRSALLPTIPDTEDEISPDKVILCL

[4] = biological target: T2, Protein cereblon/Peptidyl-prolyl cis-trans isomerase FKBP1A; assay: Protac activity at CRBN/FKBP12 in human Jurkat cells assessed as induction of FKBP12 protein degradation up to 1000 nM incubated for 12 hrs by immunoblot method relative to control
Target sequence in this assay (P62942 2-108 limits assumed): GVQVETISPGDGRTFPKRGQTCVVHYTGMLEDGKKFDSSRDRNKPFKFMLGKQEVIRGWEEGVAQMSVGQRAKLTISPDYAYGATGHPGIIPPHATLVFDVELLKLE
Target sequence in this assay (Q96SW2 whole entry partner): as the sequence (Q96SW2 whole entry) above

DC50 [1] [nM]	Emax [2] [%]	DC50 [3] [nM]	Emax [4] [%]	Structure (SMILES)
1000	> 65			Cc1nc(Nc2ncc(C(=O)Nc3c(C)cccc3Cl)s2)cc(N2CCN(CCCCCCOCCOCCOCCCCCC(=O)N[C@H](C(=O)N3C[C@H](O)C[C@H]3C(=O)NCc3ccc(-c4scnc4C)cc3)C(C)(C)C)CC2)n1
		0.3	> 95	CO[C@H]1C[C@@H]2CC[C@@H](C)[C@@](O)(O2)C(=O)C(=O)N2CCCC[C@H]2C(=O)O[C@H]([C@H](C)C[C@@H]2CC[C@@H](OCCOCc3cn(CCOCCOCCNc4cccc5c4C(=O)N(C4CCC(=O)NC4=O)C5=O)nn3)[C@H](OC)C2)CC(=O)[C@H](C)/C=C(\C)[C@@H](O)[C@@H](OC)C(=O)[C@H](C)C[C@H](C)/C=C/C=C/C=C/1C (some centres undefined)
